These results are taken from patent publication EP0684818B1, “METHOD OF REVERSING RESISTANCE OF HIV-1 STRAINS TO ZIDOVUDINE” (priority 1993, dated 1994).

≈ marks a conversion by molar mass, not a printed value. Where “and” joins values, the source holds several entries; their conditions need not be identical. Identical values can stand only once. Like-named read-outs stand apart in the source and are kept apart here.

For assay [1], the system named is HIV isolates from the patient. The assay is described as follows: Sensitivity of HIV isolates from the patient to antiviral compounds (p24 antigen production in co-culture with PHA-stimulated donor lymphocytes). To be noted: for IC50: mutations I135T, Q207E, T215F, K219Q, 50% inhibition of p24 antigen production, repeated experiment nos. Type of assay: cell-based, HIV-1. As to the method:
A standard HIV-1 isolation from fresh lymphocytes and fresh plasma was performed at several time points (two months (60 days) before the start of therapy, 1 month (30 days) and 4 months (120 days) after start of the therapy).
Plasma or lymphocytes from the patient were co-cultured with 3·10^6 PHA stimulated (phytohemagglutinin, Sigma, St. Louis, Mo., USA) HIV-1 negative donor lymphocytes. Cultures were performed in a 5% CO2 atmosphere at 37°C. Medium was replaced every 3 to 4 days. When cell death occured, fresh PHA-stimulated donor lymphocytes were added. Every 3 to 4 days, the cultures were monitored for cytopathic effect and for the presence of HIV-1 p24 antigen in the supernatant. Cultures were followed during 5 weeks. A sample was considered positive for virus if the concentration of p24 antigen in the supernatant of the co-culture (determined by a p24 antigen capture test) exceeded 1000 pg per milliliter on a single determination or > 200 pg per milliliter on two consecutive determinations. Supernatants of positive isolates were aliquoted and frozen at -70°C.
(§1) An aliquot of a positive isolate was co-cultured with several cultures of PHA-stimulated donor lymphocytes. Serial dilutions of the antiviral compound (α-[(2-nitrophenyl)-amino]-2,6-dichlorobenzeneacetamide (Co. I) or zidovudine) were added to the cultures. Cultures were performed in a 5% CO2 atmosphere at 37°C. Medium and drugs were replaced every 3 to 4 days. When cell death occured, fresh PHA-stimulated donor lymphocytes were added. The cultures were monitored for cytopathic effect and for the presence of p24 antigen in the supernatant. When p24 levels produced in the controls (without antiviral compound) exceeded 1000 pg per milliliter, a p24 antigen test was performed on all cultures treated with antivirals The concentration of antiviral compound that was needed to inhibit 50% of p24 antigen production of the controls, was calculated (IC50). The sensitivity of the isolates obtained from the patient was determined on several occasions at different times (experiment nos.). The nucleotide sequence of the reverse transcriptase was determined in order to identify mutations selected by exposure of the retrovirus to Co. I. The results obtained thus far are shown in table 1.

Another assay relates to Wild-type Strain IIIB. As to the kind of experiment: Sensitivity of wild-type HIV-1 strain to antiviral compounds (p24 antigen production in PHA-stimulated donor lymphocytes). It counts as cell-based. To be noted: 50% inhibition of p24 antigen production, repeated experiment nos. As to the method: as §1
[2] abbreviates: isolate after four months of Co. I therapy, novel mutation Y181C.
Setting [3] is: isolate obtained two months before the therapy switch.

In the case of `NC(=O)C(Nc1ccccc1[N+](=O)[O-])c1c(Cl)cccc1Cl` (stereo not drawn) [Co.I, α-[(2-nitrophenyl)amino]-2,6-dichlorobenzeneacetamide], the “sensitivity of the HIV-1 isolate (in words)” value in assay [1] (setting [2]) was “resistant”; in assay [1] (setting [3]), “sensitive”. The concentration for half-maximal inhibition (IC50) in assay [1] (patient isolate at time 120 days after start of Co. I therapy (400 mg t.i.d., po), Y181C) was more than 10 µg/mL; in assay [1] (patient isolate at time -60 days (two months before start of Co. I therapy)) it was 0.041 µg/mL and 0.07 µg/mL and 0.073 µg/mL and 0.054 µg/mL.
Regarding `Cc1cn([C@H]2C[C@H](N=[N+]=[N-])[C@@H](CO)O2)c(=O)[nH]c1=O` [zidovudine, 3'-azido-3'-deoxythymidine], the “IC50” value is 0.001 µg/mL and 0.0008 µg/mL with Wild-type Strain IIIB; 0.0011 µg/mL (≈ 4.12 nM) in the assay with Wild-type Strain IIIB (Human immunodeficiency virus 1, IIIB, Lymphocyte, read-out: IC50). Further, the “sensitivity of the HIV-1 isolate (in words)” value in assay [1] (setting [2]) is on record as “acquired again significant sensitivity”; in assay [1] (setting [3]) it was “resistant”.
